Values of other authors, collected in patent US20040176344A1, “METHOD TO TREAT PATIENTS WITH AMYOTROPHIC LATERAL SCLEROSIS AND THE LIKE” (priority 2004, published 2004).

How the values were obtained:
mouse of ALS = settings: mouse model of ALS; J Neurochem 2003
[1] = acute intermittent porphyria; Khanderia 1986

Compound	effect on disease progression (mouse of ALS)	adverse effect that precludes prophylactic use [1]
Cl.O=C([O-])c1ccc(-c2c3nc(c(-c4ccc(C(=O)O)cc4)c4nc(c(-c5ccc(C(=O)O)cc5)c5ccc([nH]5)c(-c5ccc(C(=O)[O-])cc5)c5ccc2[n-]5)C=C4)C=C3)cc1.[Fe+3] [FeTCPP]	helpful in slowing disease progression	–
C=CC1=C(C)c2cc3[n-]c(cc4[n-]c(cc5nc(cc1n2)C(C)=C5C=C)c(C)c4CCC(=O)O)c(CCC(=O)O)c3C.O.[Fe+2] [hematin]	–	causes circulatory collapse
